Measurements from US20240018158A1, “BRM TARGETING COMPOUNDS AND ASSOCIATED METHODS OF USE” (Prelude Therapeutics Incorporated, priority 2020, published 2024).

Legend:
[1] = target: SMARCA4 (Homo sapiens (Human), UniProt P51532); assay: In Cell Western SMARCA4 degradation in NCIH520 cells; format: cell-based; details: for DC50: H520 cells, overnight, read-out: DC50 (SM4_H520) SMARCA4 degradation potency; for Dmax: NCI-H520, overnight, read-out: Dmax % (SM4_H520) maximum SMARCA4 degradation within the concentrations tested
Sequence of SMARCA4 (P51532 whole entry): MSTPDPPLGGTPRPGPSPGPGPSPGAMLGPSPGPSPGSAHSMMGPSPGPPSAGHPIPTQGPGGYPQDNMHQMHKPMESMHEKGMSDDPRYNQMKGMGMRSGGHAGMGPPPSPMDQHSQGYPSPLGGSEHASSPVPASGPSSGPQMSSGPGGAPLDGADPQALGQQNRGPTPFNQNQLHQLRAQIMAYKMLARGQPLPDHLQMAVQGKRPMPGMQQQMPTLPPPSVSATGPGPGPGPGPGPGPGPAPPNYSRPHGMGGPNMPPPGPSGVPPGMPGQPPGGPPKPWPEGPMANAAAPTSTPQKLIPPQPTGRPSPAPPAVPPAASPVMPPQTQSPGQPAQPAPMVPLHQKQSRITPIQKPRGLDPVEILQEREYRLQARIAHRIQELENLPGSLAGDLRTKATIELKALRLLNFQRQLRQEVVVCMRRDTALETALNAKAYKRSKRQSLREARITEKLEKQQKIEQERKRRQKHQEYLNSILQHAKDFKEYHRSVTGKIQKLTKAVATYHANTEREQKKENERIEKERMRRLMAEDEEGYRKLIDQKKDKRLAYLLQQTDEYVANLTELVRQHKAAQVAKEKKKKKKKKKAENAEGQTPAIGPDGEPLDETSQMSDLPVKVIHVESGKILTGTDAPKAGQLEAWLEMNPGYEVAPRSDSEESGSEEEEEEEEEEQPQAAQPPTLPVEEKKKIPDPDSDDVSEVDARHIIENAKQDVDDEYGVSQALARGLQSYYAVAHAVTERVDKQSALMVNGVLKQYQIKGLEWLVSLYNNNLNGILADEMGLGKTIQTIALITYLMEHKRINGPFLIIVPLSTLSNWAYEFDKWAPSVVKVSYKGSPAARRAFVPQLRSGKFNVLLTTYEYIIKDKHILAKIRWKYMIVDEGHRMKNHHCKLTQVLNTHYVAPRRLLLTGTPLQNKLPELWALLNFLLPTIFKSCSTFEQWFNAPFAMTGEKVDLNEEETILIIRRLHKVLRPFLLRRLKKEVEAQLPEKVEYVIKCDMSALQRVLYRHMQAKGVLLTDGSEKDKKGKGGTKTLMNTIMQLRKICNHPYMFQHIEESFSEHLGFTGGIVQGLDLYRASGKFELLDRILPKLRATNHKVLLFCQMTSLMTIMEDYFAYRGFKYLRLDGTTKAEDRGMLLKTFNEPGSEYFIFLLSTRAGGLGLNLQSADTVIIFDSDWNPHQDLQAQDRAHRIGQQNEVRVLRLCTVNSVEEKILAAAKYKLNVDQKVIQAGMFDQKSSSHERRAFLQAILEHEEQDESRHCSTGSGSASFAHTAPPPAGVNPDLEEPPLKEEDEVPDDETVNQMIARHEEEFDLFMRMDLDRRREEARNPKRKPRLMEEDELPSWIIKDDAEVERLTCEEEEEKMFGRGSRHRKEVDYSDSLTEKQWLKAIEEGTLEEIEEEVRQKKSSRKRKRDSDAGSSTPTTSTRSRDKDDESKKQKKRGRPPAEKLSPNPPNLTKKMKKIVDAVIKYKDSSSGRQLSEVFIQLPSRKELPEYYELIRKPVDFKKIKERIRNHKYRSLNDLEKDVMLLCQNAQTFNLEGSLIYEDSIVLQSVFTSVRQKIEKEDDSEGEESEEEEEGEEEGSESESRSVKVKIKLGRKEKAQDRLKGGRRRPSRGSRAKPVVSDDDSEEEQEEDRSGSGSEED
Experimental: (§1) Compound titration and cell culture: Compounds were dissolved in DMSO to make 10 mM stock and 3-fold series dilutions were further conducted keeping the highest concentration 10 μM. NCIH1693 and NCIH520 cells were maintained in PRMI 1640 medium (Corning Cellgro, Catalog #:10-040-CV) supplemented with 10% v/v FBS (GE Healthcare, Catalog #: SH30910.03) by splitting 1:3 twice a week.
(§2) To determine SMACRA2 and SMARCA4 protein degradation DC50 values in NCIH1693 and NCIH520 cells by In Cell Western (ICW) analysis. Cells were trypsinized and 30 thousand cells/well were seeded into 384-well plates and were allowed to grow for 5 hours at 37° C. Eight-point, 3-fold serial dilutions of compounds from 10 mM stocks were added to the cells (using digital Dispenser D300-Tecan, keeping highest concentration 10 μM and normalizing with DMSO at the highest dispensed volume). Plates were incubated at 37° C. for overnight (maximum 18 hours). Cells incubated with DMSO was used as a vehicle control.
(§3) To perform In Cell Western, medium was removed from all the wells leaving cells attached to the surface. After removing the medium, cells were fixed within the plates with 40 μL of 4% formaldehyde by incubating at room temperature for 30 minutes, and then permeabilized with wash buffer (1×PBS with 0.1% Triton X-100) by washing the plate 5 times with 50 μL/well. Before labeling with primary antibodies, cells were blocked with 30 μL/well of blocking buffer (Licor Odyssey blocking buffer PBS #927-40000) for 30 minutes at room temperature. To measure SMARCA2 or SMARCA4 proteins, cells were labeled with 20 μL/well of anti SMARCA2 or SMACRA4 antibodies (Cell Signaling BRM #11966S 1:1000, Cell Signaling BRG #49360S 1:1000) diluted in Li-Cor Odyssey blocking buffer-PBS #927-40000, followed by overnight incubation at 4° C.
(§4) The next day, plates were washed 5×5 minutes with 50 μL/well of washing buffer to remove all the excess primary antibody and then 20 μL from a mixture of secondary antibody and fluorescent DNA specific dye (Goat anti rabbit 1:500 IRDye-800CW #92632211, and DRAQ5™ 1:2000-#ab108410) was added to each well. Plates were incubated for 1 hour at room temperature with gentle rocking. Cells were washed 5 times with 50 μL/well wash buffer, followed by one last wash with DI water, followed by 10 mins drying at 37° C. oven before scanning. Plates were scanned using Li-Cor Odyssey CLx imaging system to acquire integrated intensities at 700 nm and 800 nm. SMARCA signals were normalized to total cell count and then these normalized values were used to calculate the percent degradation relative to DMSO control and maximum inhibition. DC50s were calculated by using the GraphPad Prism4 program based on sigmoidal dose response equation ([Inhibitor] vs. normalized response−Variable slope).

[2] = target: SMARCA2 (Homo sapiens (Human), UniProt P51531); assay: In Cell Western SMARCA2 degradation in NCIH520 cells; format: cell-based; details: for DC50: H520 cells, overnight, read-out: DC50 (SM2_H520) SMARCA2 degradation potency; for Dmax: NCI-H520, overnight, read-out: Dmax % (SM2_H520) maximum SMARCA2 degradation within the concentrations tested
Sequence of SMARCA2 (P51531 whole entry): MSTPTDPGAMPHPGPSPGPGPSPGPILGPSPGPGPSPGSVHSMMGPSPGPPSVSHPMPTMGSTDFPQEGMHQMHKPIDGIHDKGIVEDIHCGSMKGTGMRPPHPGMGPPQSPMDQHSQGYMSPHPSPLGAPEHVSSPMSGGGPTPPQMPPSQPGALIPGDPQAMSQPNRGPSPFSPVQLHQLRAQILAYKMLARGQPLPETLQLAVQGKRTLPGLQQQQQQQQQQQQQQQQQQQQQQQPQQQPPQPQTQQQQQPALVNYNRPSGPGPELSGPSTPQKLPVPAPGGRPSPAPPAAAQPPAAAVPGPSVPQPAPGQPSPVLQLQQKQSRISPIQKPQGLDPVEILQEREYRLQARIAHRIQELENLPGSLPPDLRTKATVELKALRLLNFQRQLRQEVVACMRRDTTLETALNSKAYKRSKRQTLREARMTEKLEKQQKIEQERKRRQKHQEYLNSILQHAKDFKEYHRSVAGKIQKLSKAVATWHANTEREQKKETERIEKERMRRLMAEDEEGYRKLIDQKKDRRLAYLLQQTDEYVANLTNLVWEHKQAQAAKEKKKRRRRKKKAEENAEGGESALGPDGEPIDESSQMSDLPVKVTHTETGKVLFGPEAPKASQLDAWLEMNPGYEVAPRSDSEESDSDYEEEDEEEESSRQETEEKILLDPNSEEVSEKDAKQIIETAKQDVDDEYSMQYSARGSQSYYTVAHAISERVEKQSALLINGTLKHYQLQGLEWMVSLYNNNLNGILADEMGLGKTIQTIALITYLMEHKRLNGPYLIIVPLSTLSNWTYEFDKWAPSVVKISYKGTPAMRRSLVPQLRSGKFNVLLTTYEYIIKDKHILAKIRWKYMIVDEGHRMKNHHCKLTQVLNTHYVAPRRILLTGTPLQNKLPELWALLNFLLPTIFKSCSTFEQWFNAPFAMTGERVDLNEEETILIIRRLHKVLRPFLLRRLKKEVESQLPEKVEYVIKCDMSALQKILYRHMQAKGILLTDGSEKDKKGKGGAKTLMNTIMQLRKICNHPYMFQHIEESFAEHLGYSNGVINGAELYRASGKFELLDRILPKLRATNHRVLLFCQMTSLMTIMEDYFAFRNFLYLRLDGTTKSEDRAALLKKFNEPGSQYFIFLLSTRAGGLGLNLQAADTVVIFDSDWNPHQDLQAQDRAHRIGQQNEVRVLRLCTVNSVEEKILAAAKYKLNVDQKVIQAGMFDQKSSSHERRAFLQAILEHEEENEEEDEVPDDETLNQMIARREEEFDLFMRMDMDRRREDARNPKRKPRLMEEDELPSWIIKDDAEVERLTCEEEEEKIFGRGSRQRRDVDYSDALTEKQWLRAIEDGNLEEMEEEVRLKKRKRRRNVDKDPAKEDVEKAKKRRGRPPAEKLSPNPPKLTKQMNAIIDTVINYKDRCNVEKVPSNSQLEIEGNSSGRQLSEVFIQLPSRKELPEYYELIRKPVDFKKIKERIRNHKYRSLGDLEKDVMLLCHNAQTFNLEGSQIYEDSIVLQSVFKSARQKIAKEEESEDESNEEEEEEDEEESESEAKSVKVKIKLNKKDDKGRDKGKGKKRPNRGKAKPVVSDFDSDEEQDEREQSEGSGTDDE
Experimental: as §1, §2, §3, §4

[3] = target: bromodomain of SMARCA2 protein (Homo sapiens (Human), UniProt P40337+P51531); assay: SMARCA2 bromodomain ternary binding TR-FRET assay (with VCB); details: with saturating VCB (5 μM); read-out: IC50 (SM 2_T) ternary binding potency in SMARCA2 FRET assay
Sequence of bromodomain of SMARCA2 protein (P51531 whole entry, looked up): as the sequence (P51531 whole entry) above
Sequence of bromodomain of SMARCA2 protein (P40337 whole entry, looked up): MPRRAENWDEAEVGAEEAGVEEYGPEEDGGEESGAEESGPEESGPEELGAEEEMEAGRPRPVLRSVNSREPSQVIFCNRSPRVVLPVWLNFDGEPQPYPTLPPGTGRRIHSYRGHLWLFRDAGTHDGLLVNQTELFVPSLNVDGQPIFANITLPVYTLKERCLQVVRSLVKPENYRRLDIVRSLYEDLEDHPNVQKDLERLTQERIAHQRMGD
Sequence of bromodomain of SMARCA2 protein (Q15370 whole entry partner, looked up): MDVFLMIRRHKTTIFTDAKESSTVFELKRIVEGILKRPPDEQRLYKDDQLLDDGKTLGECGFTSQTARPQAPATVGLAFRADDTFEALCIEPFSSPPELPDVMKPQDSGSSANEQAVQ
Sequence of bromodomain of SMARCA2 protein (Q15369 whole entry partner, looked up): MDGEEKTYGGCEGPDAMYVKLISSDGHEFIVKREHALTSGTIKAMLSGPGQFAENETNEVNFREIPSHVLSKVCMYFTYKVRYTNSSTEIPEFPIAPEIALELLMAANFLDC
Description: Recombinant bromodomain of SMARCA2 protein was purchased from Active Motif (Catalog #: 31449). VHL/ElonginB/ElonginC (VCB)N-terminal his6-tagged VHL (“his6” disclosed as SEQ ID NO: 4) (uniprot accession number P40337; M54-D213; […] […] […] (SEQ ID NO: 1)), Elongin B (Q15370; M1-K104; […] […] (SEQ ID NO: 2)), Elongin C (Q15369; M17-C112; […] […] (SEQ ID NO: 3)) complex were co-expressed and the complex was purified by Ni-affinity, TEV protease was then used to remove his6-tagged (SEQ ID NO: 4), and the complex was further purified by size-exclusion chromatography before use.
The inhibitory activity of compounds was evaluated in vitro using TR-FRET assay with white 384-well low volume microplate (PerkinElmer ProxiPlate Plus), in which the compound competes the same binding site with the ligand, and thus lead to dose-dependent TR-FRET signal reduction. The cooperativity of the compounds for ternary complex formation with E3 ligase was evaluated in the absence or presence of saturating concentrations of VCB. Testing compounds were dissolved in DMSO at […] and tested in 9-dose IC50. The assay mixture was prepared by mixing SMARCA2 (10 nM final), biotinylated probe (25 nM final), and assay buffer or VCB (5 μM) in 1×AlphaLISA Epigenetics Buffer (PerkinElmer AL008F) with 1 mM TCEP. The compounds in DMSO were added to each well in 3-fold serial dilution by dispenser (TECAN D300E) and incubate for 20 minutes at room temperature before addition of detection reagents, Lance Eu W1024 anti-6×His (0.6 nM final, PerkinElmer AD0110) and Streptavidin Surelight APC (6 nM final, PerkinElmer CR130-100). The plate was then sealed and further incubated at 4° C. overnight in dark, and then was read by Envision multimode plate reader (PerkinElmer, 2102-0010). The ratio of florescence signal at 665/620 was used in data analysis. Percentage inhibition was calculated by % inhibition=100×(FDMSO-F)/(FDMSO-FPC), in which FDMSO is DMSO control, and FPC is positive control. IC50 values were determined from dose response curve by fitting the percent inhibition against compound concentration using GraphPad Prism software.

[4] = system: SMARCA4 mutated cancer cells; details: Vangamudi et al. Cancer Res 2015; cited from earlier work
[5] = system: NCIH1693 cells; assay: Cell proliferation assay (ATPlite) in NCIH1693 cells; format: cell-based; details: Homo sapiens, NCI-H1693, 96 h, day 4, read-out: IC50 (PRO_H1693) antiproliferation potency
Experimental: One thousand NCIH1693 or NCIH1703 cells per well were seeded in 96 well plate and incubated at 37° C. for 5 hrs. A series of three-fold dilution of compounds from 10 mM stock concentration were added to the cells by using digital Dispenser D300-Tecan, keeping highest concentration 10 μM and normalizing with DMSO at the highest dispensed volume). Cells incubated with DMSO was used as a vehicle control. After compound treatment plates were incubated at 37° C. for 4 days and cell viability was measured by measuring ATP content from the cell lysate using ATPlite Luminescence assay system (PerkinElmer Cat. no #6016941). Percentage of viable cells, relative to DMSO vehicle control and maximum inhibition, was calculated and plotted in Graphpad Prism ([Inhibitor] vs. normalized response−Variable slope) to determine cell proliferation IC50 values on day 4.

Row | DC50 [1] | Dmax [1] | DC50 [2] | Dmax [2] | IC50 [3] | Structure (SMILES) | effects on cell proliferation inhibition [4] | IC50 [5]
1 | < 100 nM | > 75% | < 100 nM | > 75% | < 100 nM | Cc1ncsc1-c1ccc([C@H](C)NC(=O)[C@@H]2C[C@@H](O)CN2C(=O)C(c2cc(OCCN3CCC(CN4CCN5c6cc(-c7ccccc7O)nnc6NCC5C4)CC3)no2)C(C)C)cc1 (stereo in doubt) [Example 5, (2S,4R)-4-hydroxy-1-((2S)-2-(3-(2-(4-((2-(2-hydroxyphenyl)-5,6,6a,7,9,10-hexahydro-8H-pyrazino[1′,2′:4,5]pyrazino[2,3-c]pyridazin-8-yl)methyl)piperidin-1-yl)ethoxy)isoxazol-5-yl)-3-methylbutanoyl)-N-((S)-1-(4-(4-methylthiazol-5-yl)phenyl)ethyl)pyrrolidine-2-carboxamide] | – | –
2 | 100 to 1000 nM | > 75% | < 100 nM | > 75% | < 100 nM | Cc1ncsc1-c1ccc([C@H](C)NC(=O)[C@@H]2C[C@@H](O)CN2C(=O)[C@@H](NC(=O)CN2CCC(CN3CCN4c5cc(-c6ccccc6O)nnc5NCC4C3)CC2)C(C)(C)C)cc1 (stereo partly drawn) [Example 3, (2S,4R)-4-hydroxy-1-((2S)-2-(2-(4-((2-(2-hydroxyphenyl)-5,6,6a,7,9,10-hexahydro-8H-pyrazino[1′,2′:4,5]pyrazino[2,3-c]pyridazin-8-yl)methyl)piperidin-1-yl)acetamido)-3,3-dimethylbutanoyl)-N-((S)-1-(4-(4-methylthiazol-5-yl)phenyl)ethyl)pyrrolidine-2-carboxamide] | – | –
3 | 100 to 1000 nM | > 75% | < 100 nM | > 75% | < 100 nM | Cc1ncsc1-c1ccc([C@H](C)NC(=O)[C@@H]2C[C@@H](O)CN2C(=O)[C@@H](c2cc(OCCN3CCN4c5cc(-c6ccccc6O)nnc5NCC4C3)no2)C(C)C)cc1 (stereo partly drawn) [Example 4, (2S,4R)-4-hydroxy-1-((2R)-2-(3-(2-(2-(2-hydroxyphenyl)-5,6,6a,7,9,10-hexahydro-8H-pyrazino[1′,2′:4,5]pyrazino[2,3-c]pyridazin-8-yl)ethoxy)isoxazol-5-yl)-3-methylbutanoyl)-N-((S)-1-(4-(4-methyl-1λ^3,3λ^2-thiazol-5-yl)phenyl)ethyl)pyrrolidine-2-carboxamide] | – | < 100 nM

The next lines start with the molecule.

Row | Structure (SMILES) | DC50 [1] | Dmax [1] | DC50 [2] | Dmax [2] | IC50 [3] | effects on cell proliferation inhibition [4] | IC50 [5]
4 | O=C(/C=C/N1C[C@H]2C[C@@H]1CN2c1ccccn1)c1ccccc1O [PFI-3] | – | – | – | – | – | none to minor effects | –
5 | Cc1ncsc1-c1ccc([C@H](C)NC(=O)[C@@H]2C[C@@H](O)CN2C(=O)[C@@H](NC(=O)CN2CCN3c4cc(-c5ccccc5O)nnc4NCC3C2)C(C)(C)C)cc1 (single isomer, unassigned) [Example 1a] | 100 to 1000 nM | > 75% | 100 to 1000 nM | > 75% | 100 to 1000 nM | – | 100 to 1000 nM
